Literature values in patent publication US11065260B1, “Method of treatment for reducing pulmonary inflammation in a patient with pathogen infection using oral prostacyclin analog drugs” (priority 2020, dated 2021).

Key:
[1] = system: COVID-19; details: several small trials
[2] = patients with pulmonary hypertension and ARDS
[3] = within 1 hour, pH 7.4 phosphate buffer, optimal formulation
[4] = human, in vivo, po
[5] = system: human monocytes
[6] = human, in vivo
[7] = human, in vivo, inhaled or intranasal
[8] = system: T cells
[9] = in vivo, po
[10] = system: pulmonary inflammation; details: several animal studies
[11] = system: COVID-19; details: randomized clinical trial of 199 patients

CCN(CCO)CCCC(C)Nc1ccnc2cc(Cl)ccc12 (stereo not drawn) [hydroxychloroquine]
clinical results [1]: mixed results

CC#CCC(C)[C@H](O)/C=C/[C@@H]1[C@H]2C/C(=C/CCCC(=O)O)C[C@H]2C[C@H]1O (stereo partly drawn) [iloprost]
gas exchange [2]: improved
in vitro dissolution of the dose [3]: 60%
adverse effects leading to discontinuation of dose escalation [4]: flushing and headache
bioavailable dose fraction [4]: highest
duration of half-maximal serum levels (mean) [4]: 2.4 h
duration of therapeutic serum levels [4]: 2.1 to 5.0 h
production of interleukin IL-6 [5]: inhibit
production of intracellular TNF-α [5]: inhibit
contraindications [6]: no contraindications
side effects [6]: minimal side effects
half-life [7]: 20 to 30 min
IL-2 and RANKL [8]: increasing
TNF-α production by T cells [8]: reducing
number of T regulatory cells [8]: reducing
steady-state serum levels [9]: 260 pg/mL
pulmonary inflammation [10]: reduce pulmonary inflammation

lopinavir-ritonavir
clinical benefit [11]: No benefit
